Data from US11999727B2 (Tango Therapeutics, Inc., priority 2020, dated 2024).
Where two headings read alike, the source gives them in different places.

Tests used:
[1] = biological target: T1, PRMT5 (Homo sapiens, UniProt O14744); assay: PRMT5 biochemical IC50 assay with SAM as cofactor; details: PRMT5, SAM as cofactor; read-out: SAM IC50
T1 construct: purchased Viva (custom protein)

[2] = biological target: T1, PRMT5; assay: PRMT5 biochemical IC50 assay with no cofactor; details: PRMT5, no cofactor
Description: Table 1 indicates IC50 values (μM) against PRMT5 for exemplary compounds in the presence of SAM as cofactor, with no cofactor, and with MTA as cofactor, respectively (columns 4-6). […] Ki values can be calculated from the IC50 values as described in the Examples section. As detailed in the Examples section, for the assay performed in the presence of SAM, IC50=Ki×1.5 (Ki=IC50/1.5).

[3] = biological target: T1, PRMT5; assay: PRMT5 biochemical IC50 assay with MTA as cofactor; details: PRMT5, MTA as cofactor; read-out: MTA IC50
[4] = tested on: HAP1 MTAP-intact cell line; assay: SDMA in-cell western assay, HAP1 MTAP-intact; type: cell-based; details: Homo sapiens
Method in brief: (§1)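 Isogenic HAP1 pair: the MTAP-intact line expresses endogenous MTAP, and the deleted line is MTAP-null. Symmetric dimethylarginine was detected by in-cell western and IC50 values derived for each line.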

[5] = tested on: HAP1 MTAP-deleted cell line; assay: SDMA in-cell western assay, HAP1 MTAP-deleted; type: cell-based; details: for IC50: Homo sapiens; for MTAP intact/deleted ratio: SDMA in-cell western
Method in brief: as §1

[6] = tested on: HAP1 MTAP-deleted cell line; assay: Viability assay, MTAP-deleted cell line; type: cell-based; details: Homo sapiens
Description: Table 1 additionally indicates IC50 values in a viability assay for the MTAP-deleted cell line (column 10), indicating the effect of treatment with compound on cell survival.

[7] = HAP1, SDMA in-cell western, HAP1 MTAP-intact, read-out: MTAP HAP1 intact IC50
[8] = HAP1, SDMA in-cell western, HAP1 MTAP-deleted, read-out: HAP 1 MTAP deleted IC50
[9] = IC50 ratio HAP1 MTAP-intact / HAP1 MTAP-deleted
[10] = HAP1, viability IC50, MTAP-deleted cell line, read-out: HAP1 MTAP deleted viability
[11] = HAP1, viability assay, MTAP-deleted cell line, read-out: HAP1 MTAP deleted viability
[12] = HAP1, SDMA in-cell western, HAP1 MTAP-deleted, read-out: HAP1 MTAP deleted IC50
[13] = IC50 ratio HAP1 MTAP-intact vs HAP1 MTAP-deleted
[14] = read-out: No Cofactor/ rel IC50
[15] = HAP1, viability, HAP1 MTAP-deleted cell line, read-out: HAP1 MTAP deleted viability
[16] = HAP1, viability assay, HAP1 MTAP-deleted, read-out: HAP1 MTAP deleted viability

T1 sequence (O14744 whole entry): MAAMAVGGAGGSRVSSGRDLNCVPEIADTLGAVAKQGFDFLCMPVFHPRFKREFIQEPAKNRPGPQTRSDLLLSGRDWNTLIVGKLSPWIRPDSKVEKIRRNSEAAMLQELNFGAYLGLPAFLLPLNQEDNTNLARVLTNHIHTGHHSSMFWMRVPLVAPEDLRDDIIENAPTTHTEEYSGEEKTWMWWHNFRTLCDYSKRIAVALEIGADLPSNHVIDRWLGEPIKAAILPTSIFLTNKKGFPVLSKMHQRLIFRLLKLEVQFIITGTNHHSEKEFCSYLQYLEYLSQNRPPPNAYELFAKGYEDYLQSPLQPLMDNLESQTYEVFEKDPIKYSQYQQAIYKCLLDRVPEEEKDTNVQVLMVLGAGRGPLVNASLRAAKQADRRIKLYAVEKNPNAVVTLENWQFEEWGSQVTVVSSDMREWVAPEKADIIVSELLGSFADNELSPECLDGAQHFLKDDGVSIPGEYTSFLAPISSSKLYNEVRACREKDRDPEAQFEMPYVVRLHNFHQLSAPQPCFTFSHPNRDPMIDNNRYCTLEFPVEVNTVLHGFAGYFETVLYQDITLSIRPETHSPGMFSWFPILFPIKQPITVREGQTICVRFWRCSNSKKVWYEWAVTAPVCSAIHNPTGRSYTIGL
T1 sequence (Q9BQA1 whole entry partner): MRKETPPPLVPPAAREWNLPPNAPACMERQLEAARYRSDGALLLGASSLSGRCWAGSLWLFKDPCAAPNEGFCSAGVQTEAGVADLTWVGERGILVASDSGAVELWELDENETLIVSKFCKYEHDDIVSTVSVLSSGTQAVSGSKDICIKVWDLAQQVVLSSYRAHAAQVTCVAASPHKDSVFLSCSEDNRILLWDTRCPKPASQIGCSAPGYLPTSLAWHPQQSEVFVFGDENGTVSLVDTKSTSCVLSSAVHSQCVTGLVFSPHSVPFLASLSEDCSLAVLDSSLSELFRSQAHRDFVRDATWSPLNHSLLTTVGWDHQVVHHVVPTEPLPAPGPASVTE

| SMILES | IC50 [1] [nM] | IC50 ([2]; read-out: No Cofactor/rel IC50) [nM] | IC50 [3] [nM] | IC50 [4, 7] [nM] | IC50 [5, 8] [nM] | MTAP intact/deleted ratio [5, 9] | IC50 [6, 10] [nM] | IC50 [6, 11] [nM] | IC50 [5, 12] [nM] | MTAP intact/deleted ratio [5, 13] | IC50 [2, 14] [nM] | IC50 [6, 15] [nM] | IC50 [6, 16] [nM] | IC50 ([4]; HAP1, read-out: MTAP HAP1 intact IC50) [nM] | IC50 ([5]; HAP1, read-out: HAP1 MTAP deleted IC50) [nM] | IC50 ([6]; HAP1, read-out: HAP1 MTAP deleted viability) [nM] |
| --- | --- | --- | --- | --- | --- | --- | --- | --- | --- | --- | --- | --- | --- | --- | --- | --- |
| Cc1cc(NC(=O)C(=O)N2C[C@H](C)CC[C@H]2c2cc(Cl)cc(Cl)c2)cnc1N (single isomer, unassigned) [Compound 681] | 50 to 500 | < 50 | < 50 | > 1000 | < 100 | A (an IC50 ratio greater than or equal to 10 fold) | 1000 to 10000 | – | – | – | – | – | – | – | – | – |
| Cc1cc(NC(=O)C(=O)N2C[C@@H](C)CC[C@@H]2c2ccc3c(=O)[nH]ccc3c2)cnc1N (single isomer, unassigned) [Compound 961] | > 500 | 50 to 500 | < 50 | > 1000 | < 100 | A (an IC50 ratio greater than or equal to 10 fold) | – | 1000 to 10000 | – | – | – | – | – | – | – | – |
| CCc1cc(NC(=O)C(=O)N2C[C@@H](C)CC[C@@H]2c2ccc(N3CCN(C(C)C)CC3)cc2)cnc1N (single isomer, unassigned) [Compound 1208] | 50 to 500 | < 50 | < 50 | 100 to 1000 | – | – | – | < 1000 | < 100 | A (an IC50 ratio greater than or equal to 10 fold) | – | – | – | – | – | – |
| Cc1nc2cc([C@@H]3CC[C@@H](C)CN3C(=O)C(=O)Nc3cncc(C(N)=O)c3)ccc2s1 (single isomer, unassigned) [Compound 693] | 50 to 500 | < 50 | < 50 | 100 to 1000 | < 100 | A (an IC50 ratio greater than or equal to 10 fold) | < 1000 | – | – | – | – | – | – | – | – | – |
| Cc1cc([C@@H]2CC[C@@H](C)CN2C(=O)C(=O)Nc2cncc(C(N)=O)c2)ccc1Cl (racemic) [Compound 173, rac-5-{2-[(2R,5S)-2-(4-Chloro-3-methylphenyl)-5-methylpiperidin-1-yl]-2-oxoacetamido}pyridine-3-carboxamide] | 50 to 500 | – | < 50 | > 1000 | < 100 | A (an IC50 ratio greater than or equal to 10 fold) | – | 1000 to 10000 | – | – | 50 to 500 | – | – | – | – | – |
| Cc1cc(NC(=O)C(=O)N2C[C@@H](C)[C@H](CC(C)C)C[C@@H]2c2ccc3scnc3c2)cnc1N (single isomer, unassigned) [Compound 1284] | > 500 | – | > 500 | > 1000 | > 1000 | – | – | – | – | – | > 500 | > 10000 | – | – | – | – |
| CNc1cccc([C@@H]2CCCCN2C(=O)C(=O)Nc2cncc(C(N)=O)c2)c1 (single isomer, unassigned) [Compound 334] | 50 to 500 | 50 to 500 | < 50 | > 1000 | – | A (an IC50 ratio greater than or equal to 10 fold) | – | 1000 to 10000 | < 100 | – | – | – | – | – | – | – |
| Cc1cc(NC(=O)C(=O)N2C[C@@H](C)CC(F)(F)[C@@H]2c2ccc(F)cc2)cnc1N (racemic) [Compound 871, N-(6-amino-5-methyl-3-pyridyl)-2-[(2S,5S)-3,3-difluoro-2-(4-fluorophenyl)-5-methyl-1-piperidyl]-2-oxo-acetamide] | 50 to 500 | 50 to 500 | < 50 | 100 to 1000 | – | B (an IC50 ratio greater than or equal to 3 fold but lower than 10 fold) | – | – | < 100 | – | – | – | 1000 to 10000 | – | – | – |
| COc1ncc(NC(=O)C(=O)N2C[C@H](C)CC[C@H]2c2ccc(O)cc2)cc1C(N)=O (single isomer, unassigned) [Compound 292] | > 500 | > 500 | > 500 | – | – | C (an IC50 ratio of less than 3 fold) | – | – | – | – | – | – | – | > 1000 | > 1000 | > 10000 |
| N#C[C@H]1CCN(C(=O)C(=O)Nc2cncc(C(N)=O)c2)[C@@H](c2ccccc2)C1 (single isomer, unassigned) [Compound 352] | 50 to 500 | 50 to 500 | < 50 | > 1000 | – | A (an IC50 ratio greater than or equal to 10 fold) | – | > 10000 | 100 to 1000 | – | – | – | – | – | – | – |
| Cc1cc(NC(=O)C(=O)N2C[C@@H](C)CC[C@@H]2c2ccc(C(N)=O)s2)cnc1N (single isomer, unassigned) [Compound 733] | 50 to 500 | < 50 | < 50 | 100 to 1000 | – | A (an IC50 ratio greater than or equal to 10 fold) | – | – | < 100 | – | – | – | < 1000 | – | – | – |
| Cc1ccc([C@@H]2CC[C@@H](C)CN2C(=O)C(=O)Nc2cncc(C(N)=O)c2)cc1C (racemic) [Compound 180, rac-5-{2-[(2R,5S)-2-(3,4-Dimethylphenyl)-5-methylpiperidin-1-yl]-2-oxoacetamido}pyridine-3-carboxamide] | 50 to 500 | 50 to 500 | < 50 | > 1000 | – | A (an IC50 ratio greater than or equal to 10 fold) | – | 1000 to 10000 | 100 to 1000 | – | – | – | – | – | – | – |
| Cc1cc(NC(=O)C(=O)N2C[C@H](C)CC[C@H]2c2cc3cn[nH]c3s2)cnc1N (single isomer, unassigned) [Compound 1120] | > 500 | > 500 | > 500 | > 1000 | – | – | – | > 10000 | > 1000 | – | – | – | – | – | – | – |
| C[C@H]1CC[C@H](c2cccnc2)N(C(=O)C(=O)Nc2cncc(C(N)=O)c2)C1 (single isomer, unassigned) [Compound 105] | > 500 | – | > 500 | > 1000 | > 1000 | C (an IC50 ratio of less than 3 fold) | – | > 10000 | – | – | > 500 | – | – | – | – | – |
| Cc1cc(NC(=O)C(=O)N2C[C@H](C)CC[C@H]2C2CCCCC2)cnc1N (single isomer, unassigned) [Compound 148] | 50 to 500 | – | < 50 | 100 to 1000 | < 100 | A (an IC50 ratio greater than or equal to 10 fold) | – | 1000 to 10000 | – | – | 50 to 500 | – | – | – | – | – |
| CCc1cc(NC(=O)C(=O)N2C[C@@H](C)CC[C@@H]2c2cccc(OCC3CCN(C)CC3)c2)cnc1N [Compound 1348, N-(6-amino-5-ethylpyridin-3-yl)-2-((2R,5S)-5-methyl-2-(3-((1-methylpiperidin-4-yl)methoxy)phenyl)piperidin-1-yl)-2-oxoacetamide] | < 50 | – | < 50 | < 100 | < 100 | A (an IC50 ratio greater than or equal to 10 fold) | – | – | – | – | < 50 | < 1000 | – | – | – | – |
| C[C@@H]1CC[C@@H](c2ccccn2)N(C(=O)C(=O)Nc2cncc(C(N)=O)c2)C1 (single isomer, unassigned) [Compound 578] | > 500 | > 500 | > 500 | > 1000 | > 1000 | C (an IC50 ratio of less than 3 fold) | > 10000 | – | – | – | – | – | – | – | – | – |
| Cc1ncc(NC(=O)C(=O)N2C[C@@H](C)CC[C@@H]2c2ccc3sc(C4CCN(C)CC4)nc3c2)cc1Cl [Compound 1102, N-(5-chloro-6-methylpyridin-3-yl)-2-((2R,5S)-5-methyl-2-(2-(1-methylpiperidin-4-yl)benzo[d]thiazol-5-yl)piperidin-1-yl)-2-oxoacetamide] | < 50 | < 50 | < 50 | 100 to 1000 | – | – | – | < 1000 | < 100 | A (an IC50 ratio greater than or equal to 10 fold) | – | – | – | – | – | – |
| CCc1cc(NC(=O)C(=O)N2C[C@@H](C)CC[C@@H]2c2ccc(OCC3CCN(C)CC3)cc2)cnc1N [Compound 1206] | 50 to 500 | < 50 | < 50 | 100 to 1000 | – | – | – | < 1000 | < 100 | A (an IC50 ratio greater than or equal to 10 fold) | – | – | – | – | – | – |
| Cc1cc(NC(=O)C(=O)N2CCCCC2c2cccnc2)cnc1N (stereo not drawn) [Compound 38, N-(6-Amino-5-methyl-3-pyridyl)-2-oxo-2-[2-(3-pyridyl)-1-piperidyl]acetamide] | 50 to 500 | – | 50 to 500 | > 1000 | > 1000 | B (an IC50 ratio greater than or equal to 3 fold but lower than 10 fold) | – | > 10000 | – | – | 50 to 500 | – | – | – | – | – |
